Test results: PMC4127593, “Novel human D-amino acid oxidase inhibitors stabilize an active-site lid-open conformation” (Bioscience Reports, 2014)
Entries after “also recorded” stand apart in the source; their conditions may differ. Where two headings read alike, the source gives them in different places.

How the values were obtained:
[1] = target: HRP/hydrogen peroxide detection system (Armoracia rusticana, UniProt P00433); experiment: Counter assay (Amplex Red; hDAAO omitted, hydrogen peroxide included); details: Amplex Red detection system without hDAAO
Experimental: (§1) For our assay, N-terminal hexaHis (His)-tagged hDAAO (prepared as described previously [32]), HRP (horseradish peroxidase), FAD, and compound inhibitor were incubated for 20–30 min. After that pre-incubation period, D-serine and Amplex Red were added and reaction proceeded for 1 hour. Fluorescent product, caused by hydrogen peroxide-dependent, Amplex Red oxidation during hDAAO-catalysed substrate turnover, was measured on a FlexStation II (Molecular Devices) in endpoint mode with these settings: excitation 530 nm, emission 590 nm, cutoff 590 nm and photomultiplier tube on Low. […] For the counter assay, hDAAO was omitted and 800 nM hydrogen peroxide (Sigma) was included.

rDAAO (rat DAAO) = rDAAO (rat DAAO) (Rattus norvegicus, UniProt O35078); experiment: rDAAO inhibition assay, Amplex Red format
Experimental: (§2) All enzymatic assays were conducted at room temperature (23–24°C) in 96-well plate format. Dose response data to generate IC50 data were analysed via Prism (Graphpad Software) or by a script executed by Pipeline Pilot (Accelrys).
as §1

hDAAO [2] = target: T1, hDAAO (Homo sapiens, UniProt P14920); experiment: D-serine and FAD saturation experiments (mechanism of inhibition, Ki); assay type: biochemical; details: for Mechanism of inhibition: D-serine saturation at 40 μM FAD, FAD saturation at 50 mM D-serine; for Ki: global fit of D-serine saturation data to equations (3) and (4), mean±S.D.
T1 construct: hexaHis (N); made in house
Experimental: To determine inhibitor mechanism of action (D-serine- or FAD-competition), saturation experiments were performed using the Amplex Red system. Keeping D-serine or FAD constant, concentration of the other substrate was varied, and hDAAO enzymatic product was measured fluorescently as described above; these saturation tests were conducted in the presence of variable amounts of inhibitor. In these experiments, there was no preincubation period, such that hDAAO was exposed to D-serine, FAD and inhibitor simultaneously. […] After a 1 h reaction, product was measured using the FlexStation II in the endpoint mode. Data were plotted and fit with a one site, specific binding equation (Graphpad Prism): (2) y=Vmax×x/KM+x
Equation (2) permitted a determination of Vmax and KM at variable inhibitor concentration for a determination of competitive, uncompetitive or non-competitive profile. For D-serine competitive inhibitors, the same data were fit using the GraphPad Prism ‘Competitive inhibition’ equation to derive a global Ki value: (3) KM,obs=KM(1+[I]Ki) (4) y=Vmax×x/KM,obs+x

[3] = target: T2, hDAAO (human D-amino acid oxidase) (Homo sapiens, UniProt P14920); experiment: hDAAO inhibition assay, Amplex Red format, D-serine as substrate; assay type: biochemical; details: for IC50: 0.73 nM His-hDAAO, 5 mM D-serine, 450 nM FAD, pH 7.4, mean±S.D.; for IC50 values relative to compound 3: in several of the biochemical assays
T2 construct: hexaHis (N); made in house
Experimental: as §2, §1

hDAAO [4] = target: T1, hDAAO; experiment: LC–MS-based hDAAO inhibition assay, D-phenylglycine as substrate; assay type: biochemical; details: 5 nM His-hDAAO, 5 mM D-phenylglycine, 450 nM FAD; mean±S.D.
Experimental: as §2
For the LC–MS-based hDAAO inhibition assay, his-hDAAO, FAD and compound inhibitors were incubated for 20–30 min. After that period, D-phenylglycine was added and reaction proceeded for 1 h. […] Following the 1 h enzymatic reaction, an equal volume of 100% (v/v) acetonitrile was added. Quantitation of benzylformic acid concentrations was performed using negative ion liquid chromatography/mass spectrometry/mass spectrometry (LC–MS/MS). A 2 μl aliquot of sample was injected onto an ultra-high performance liquid chromatographic system (UPLC Waters Corp) equipped with an API 5500 QTrap mass spectrometer detector (Applied Biosystems/MDS Sciex) operated in the negative TurboIonSpray® mode. […] The mobile phases used for elution consisted of 1.0 mM ammonium formate with 0.2% (v/v) formic acid in water (A) and 1.0 mM ammonium formate with 0.2% (v/v) formic acid in acetonitrile (B) at a total flow rate of 0.600 ml/min. Wash solvent 1 was 3% formic acid in acetonitrile and wash solvent 2 was 3% formic acid in water. Calibration standards were injected once before and once after the analysis of unknown samples to construct a standard curve. A linear weighted (1/concentration^2) regression analysis of the analyte peak area ratio versus theoretical concentration was used to produce calibration curves from standards.

hDAAO [5] = target: T1, hDAAO; experiment: Jump-dilution assay (reversibility, apparent dissociation rate); assay type: biochemical; details: for koff: jump-dilution
Experimental: The assay mixture was similar to that described above for the Amplex Red-based assay system. […] After a 30 min pre-incubation to form inhibited complexes, 195 μl of reaction mixture was added. Compared with the standard assay, 50 mM D-serine was utilized as the hDAAO substrate. […] Immediately after adding the reaction mixture, fluorescent substrate was monitored kinetically by the FlexStation II. Data were fit using the following equation [38] in which Pis the fluorescent product formed, tis the time, vs is the final, steady-state reaction velocity, vi is the initial reaction velocity, and k is the koff: (1) [P]=vst+vi−vs/k(1−e^−kt)

[6] = In vivo brain penetration after intraperitoneal dosing; details: mouse, brain and plasma, ip; mice, dosed intraperitoneally; results not shown; read-out: brain:plasma compound ratio
Excerpt: Multiple groups have pursued the discovery of potent, brain-penetrant, drug-like hDAAO inhibitors for use in treating schizophrenia and other nervous system disorders. Thus, the identification of a novel hDAAO conformation could guide the design of the next generation of hDAAO inhibitors. […] Like all existing high-affinity hDAAO inhibitors, interaction of these compounds with Arg^283 of hDAAO requires a carboxylic acid or other electronegative moiety, a feature that is known to reduce brain penetration. […] Potency gained by optimizing ligand binding in these hDAAO regions could conceivably reduce the need for extensive Arg^283 association, and, thus, could facilitate the creation of novel inhibitors of hDAAO.

[7] = 80 μM FAD pre-incubation, 50 mM D-serine, mean±S.D.

Chain of rDAAO (rat DAAO) (O35078 whole entry): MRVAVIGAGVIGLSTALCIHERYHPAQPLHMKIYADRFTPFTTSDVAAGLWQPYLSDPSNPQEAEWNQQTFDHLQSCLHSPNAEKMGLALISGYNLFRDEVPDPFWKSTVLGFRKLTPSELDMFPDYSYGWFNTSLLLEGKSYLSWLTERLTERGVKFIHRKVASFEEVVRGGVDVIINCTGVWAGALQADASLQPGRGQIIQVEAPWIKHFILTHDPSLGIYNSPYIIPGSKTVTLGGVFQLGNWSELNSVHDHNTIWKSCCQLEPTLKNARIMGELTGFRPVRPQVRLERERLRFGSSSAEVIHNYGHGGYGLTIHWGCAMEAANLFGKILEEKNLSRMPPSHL
T2 sequence (P14920 whole entry): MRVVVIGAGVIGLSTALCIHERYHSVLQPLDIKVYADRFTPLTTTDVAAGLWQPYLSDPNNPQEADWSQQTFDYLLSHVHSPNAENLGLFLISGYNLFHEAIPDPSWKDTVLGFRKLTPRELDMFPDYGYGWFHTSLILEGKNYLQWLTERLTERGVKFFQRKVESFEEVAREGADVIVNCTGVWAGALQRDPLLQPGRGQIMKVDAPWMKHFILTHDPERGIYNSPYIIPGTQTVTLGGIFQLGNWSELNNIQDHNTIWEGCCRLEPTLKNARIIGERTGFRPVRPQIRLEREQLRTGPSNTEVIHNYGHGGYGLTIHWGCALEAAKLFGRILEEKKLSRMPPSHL
T1 sequence (P14920 whole entry): as above
Chain of HRP/hydrogen peroxide detection system (P00433 31-338): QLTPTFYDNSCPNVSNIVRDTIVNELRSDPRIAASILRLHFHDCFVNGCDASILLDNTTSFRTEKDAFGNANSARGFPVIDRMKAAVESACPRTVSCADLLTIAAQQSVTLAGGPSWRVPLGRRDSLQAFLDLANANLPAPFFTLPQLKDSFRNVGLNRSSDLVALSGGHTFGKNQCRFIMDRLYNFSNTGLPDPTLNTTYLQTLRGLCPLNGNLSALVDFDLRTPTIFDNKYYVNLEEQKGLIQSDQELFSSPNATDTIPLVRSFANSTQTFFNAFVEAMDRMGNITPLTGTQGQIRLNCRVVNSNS

| Compound | IC50 (rDAAO (rat DAAO)) [nM] | Mechanism of inhibition (hDAAO [2]) | IC50 [3] [nM] | IC50 (hDAAO [4]) [nM] | other results |
| --- | --- | --- | --- | --- | --- |
| O=C(O)c1cc2occc2[nH]1 [Compound 1, 4H-furo[3,2-b]pyrrole-5-carboxylic acid, reference compound] | 87 ± 11 | – | – | – | inhibition in the counter assay [1]: did not display inhibition |
| Nc1ncnc2c1ncn2[C@@H]1O[C@H](COP(=O)(O)OP(=O)(O)O)[C@@H](O)[C@H]1O [ADP, reference compound] | – | FAD-competitive inhibitor of hDAAO; also recorded: D-serine mixed competition, FAD competitive | 580000 ± 80000 | – | – |
| Cc1cc(=O)oc2cc(O)c(CCC(=O)O)cc12 [Compound 4] | – | – | 18000 | – | hDAAO inhibitory potency weaker than compound 2 ([3]; relative to compound 2): approximately 500 fold |
| O=c1[nH]nc(CCc2ccc(O)cc2O)cc1O [Compound 5, 6-(2,4-dihydroxyphenethyl)-4-hydroxypyridazin-3(2H)-one] | 130 | – | 54 ± 10 | 13 | IC50 values relative to compound 3 [3]: 5–10 fold |
| O=C(O)CCc1cc2c(-c3ccccc3)cc(=O)oc2cc1O [Compound 2, 3-(7-hydroxy-2-oxo-4-phenyl-2H-chromen-6-yl)propanoic acid] | 4000 ± 1400 | D-serine competitive, FAD uncompetitive | 37 ± 14 | 230 ± 180 | inhibition in the counter assay [1]: did not display inhibition; Ki (hDAAO [2]): 7 ± 1.4 nM; hDAAO inhibition after dilution (hDAAO [5]; 5 nM compound, 50 mM D-serine recovery conditions): no significant inhibition; reversibility of inhibition (hDAAO [5]; 200 nM then 5 nM jump dilution): reversible inhibition; koff (hDAAO [5]; [7]): 0.12 ± 0.02 (8) per min; inhibition at 0.2 µM ([3]; 200 nM compound): > 80%; Kp [6]: < 0.05 |

Second part, led by results:

| IC50 (rDAAO (rat DAAO)) [nM] | Mechanism of inhibition (hDAAO [2]) | IC50 [3] [nM] | IC50 (hDAAO [4]) [nM] | Compound | other results |
| --- | --- | --- | --- | --- | --- |
| 83 ± 7 | – | 7.2 ± 1 | 24 | COc1ccc(CCc2cc(O)c(=O)[nH]n2)c(OC)c1 [Compound 6, 6-(2,4-dimethoxyphenethyl)-4-hydroxypyridazin-3(2H)-one] | IC50 values relative to compound 3 [3]: 5–10 fold |
| 47 ± 16 | D-serine competitive, FAD uncompetitive | 20 ± 5 | 110 ± 20 | O=c1cc(-c2ccccc2)c2cc(CCc3cc(O)c(=O)[nH]n3)c(O)cc2o1 [Compound 3, 4-hydroxy-6-(2-(7-hydroxy-2-oxo-4-phenyl-2H-chromen-6-yl)ethyl)pyridazin-3(2H)-one] | Ki (hDAAO [2]): < 10 nM; dissociative half-life (hDAAO [5]; from koff): ~1 h; koff (hDAAO [5]; [7]): 0.015 ± 0.03 (3) per min; koff (hDAAO [5]; read-out: off-rate (koff) (converted)): 0.00025 s⁻¹; more potent as hDAAO inhibitor than compound 2 ([3]; relative to compound 2): approximately 2 fold; Kp [6]: < 0.05 |
